Patent US12521393B2, “Cytotoxicity targeting chimeras for CCR2-expressing cells” (GLAXOSMITHKLINE INTELLECTUAL PROPERTY DEVELOPMENT LIMITED, priority 2021, dated 2026)
Where a name gives a salt, the structure may show the parent alone.

Test system: endogenous target monocytes in human PBMC
Assay: PBMC ex vivo monocyte depletion flow cytometry assay (Example 200)
Assay type: cell-based
Conditions: with anti-cotinine antibody (SEQ ID NO: 11/12), 18-24 hours, EC50 in molar, read-out: Ex Vivo Depletion Assay pEC50 (converted)
Experimental: A human PBMC (peripheral blood mononuclear cells) monocyte depletion flow cytometry assay was developed to screen compounds in a 384-well plate format. This assay incorporated endogenous natural killer cells to deplete endogenous target monocytes.
To screen compounds in the human PBMC monocyte depletion flow cytometry assay, 11-point dose-response curves were made from 1 mM stocks in neat DMSO by serially diluting an ARM compound of Formula (I) four-fold into a 384-well plate row-wise. These serially diluted compounds were then stamped into a flat bottom polypropylene 384-well plate (Greiner Bio-One) at 100 nL/well. Fifty microliters of 30 μg/mL anti-cotinine antibody having a heavy chain sequence of SEQ ID NO: 11 and a light chain sequence of SEQ ID NO: 12 (rabbit variable region with human IgG1 Fc domain containing a DE mutation (S239D/1332E)) that had been diluted in assay medium (RPMI 1640 (Gibco) containing 10% fetal bovine serum (Gibco), 1% Glutamax (Gibco) and 1% sodium pyruvate (Corning) was added to the wells of the plate. The plate was centrifuged for 1 min at 500 rpm (revolutions per minute) and then shaken for 5 min at room temperature. The plate was incubated for 15 minutes at 37° C./5% CO2.
Frozen PBMC cells (HemaCare BioResearch) were thawed and centrifuged at 1,200 rpm for 4 minutes. The cells were diluted to a cell density of 2×10^6 cells/mL in assay medium. Fifty microliters of the diluted cells were added to the wells of the plate. The plate was centrifuged for 1 min at 500 rpm and incubated for 18-24 hours at 37° C./5% CO2.
After 18-24 hours incubation, 2 μL of 6.25 μg human FC block (BD Pharmingen) that was diluted in assay medium was added to the wells of the plate. The plate was centrifuged for 1 minute at 500 rpm and then incubated at room temperature for 15 minutes. Five microliters of 750 nM Helix NP NIR (Biolegend) that had been diluted in assay medium was added to the wells of the plate. Nine microliters of antibody cocktail containing 1/5 diluted fluorescein isothiocyanate (FITC) labeled anti-CD45 antibody (Beckman Coulter), PC7 labeled anti-CD14 antibody (Beckman Coulter) and phyocoerythrin (PE) anti-CD4 antibody (Beckman Coulter) was then added to the wells of the plate. The plate was centrifuged for 1 min at 500 rpm and incubated for 30 minutes at 4-8° C. Samples from the plate were run on BD FACS Canto II flow cytometer and data was analyzed using FlowJo software.
ARMs compounds of Formula (I) of the invention were tested for the ability to deplete monocytes in the above assay in one or more experimental runs and the results are shown in Table 3 below. Potency of the compounds of the invention is reported as a pEC50 value. The pEC50 value is the negative log of the EC50 value, wherein the EC50 value is the half maximal effective concentration measured in molar (M). For compounds tested in more than one experimental run, the pEC50 value is reported as an average or as the individual values measured

CC(C)N(C)[C@@H]1CC[C@H](N2CC[C@H](Nc3ncnc4ccc(C(F)(F)F)cc34)C2=O)[C@H](NC(=O)c2cccc(NCCOCCOCCOCCOCCOCCNC(=O)[C@H]3CC(=O)N(C)[C@@H]3c3cccnc3)n2)C1 [Example 124, N-((1R,2S,5R)-5-(Isopropyl(methyl)amino)-2-((S)-2-oxo-3-((6-(trifluoromethyl)quinazolin-4-yl)amino)pyrrolidin-1-yl)cyclohexyl)-6-((1-((2S,3S)-1-methyl-5-oxo-2-(pyridin-3-yl)pyrrolidin-3-yl)-1-oxo-5,8, 11, 14, 17-pentaoxa-2-azanonadecan-19-yl)amino)picolinamide]
EC50: 100000 nM

CC(C)N(C)[C@@H]1CC[C@H](N2CC[C@H](Nc3ncnc4ccc(C(F)(F)F)cc34)C2=O)[C@H](NC(=O)c2ccc(NCCOCCOCCOCCOCCNC(=O)[C@H]3CC(=O)N(C)[C@@H]3c3cccnc3)nn2)C1 [Example 125, N-((1R,2S,5R)-5-(Isopropyl(methyl)amino)-2-((S)-2-oxo-3-((6-(trifluoromethyl)quinazolin-4-yl)amino)pyrrolidin-1-yl)cyclohexyl)-6-((1-((2S,3S)-1-methyl-5-oxo-2-(pyridin-3-yl)pyrrolidin-3-yl)-1-oxo-5,8,11,14-tetraoxa-2-azahexadecan-16-yl)amino) pyridazine-3-carboxamide]
EC50: 15.8 nM

CC(C)N(C)[C@@H]1CC[C@H](N2CC[C@H](Nc3ncnc4ccc(C(F)(F)F)cc34)C2=O)[C@H](NC(=O)c2ccnc(NCCOCCOCCOCCOCCNC(=O)[C@H]3CC(=O)N(C)[C@@H]3c3cccnc3)c2)C1 [Example 126, N-((1R,2S,5R)-5-(Isopropyl(methyl)amino)-2-((S)-2-oxo-3-((6-(trifluoromethyl)quinazolin-4-yl)amino)pyrrolidin-1-yl)cyclohexyl)-2-((1-((2S,3S)-1-methyl-5-oxo-2-(pyridin-3-yl)pyrrolidin-3-yl)-1-oxo-5,8,11,14-tetraoxa-2-azahexadecan-16-yl)amino)isonicotinamide, 3Trifluoroacetic acid salt]
EC50: 2.51 nM

CC(C)N(C)[C@@H]1CC[C@H](N2CC[C@H](Nc3ncnc4ccc(C(F)(F)F)cc34)C2=O)[C@H](NC(=O)c2cc(NCCOCCOCCOCCOCCNC(=O)[C@H]3CC(=O)N(C)[C@@H]3c3cccnc3)ncn2)C1 [Example 127, N-((1R,2S,5R)-5-(Isopropyl(methyl)amino)-2-((S)-2-oxo-3-((6-(trifluoromethyl)quinazolin-4-yl)amino)pyrrolidin-1-yl)cyclohexyl)-6-((1-((2S,3S)-1-methyl-5-oxo-2-(pyridin-3-yl)pyrrolidin-3-yl)-1-oxo-5,8,11, 14-tetraoxa-2-azahexadecan-16-yl)amino) pyrimidine-4-carboxamide]
EC50: 2 nM

CC(C)N(C)[C@@H]1CC[C@H](N2CC[C@H](Nc3ncnc4ccc(C(F)(F)F)cc34)C2=O)[C@H](NC(=O)c2ccc(NCCOCCOCCOCCOCCNC(=O)[C@H]3CC(=O)N(C)[C@@H]3c3cccnc3)nc2)C1 [Example 128, N-((1R,2S,5R)-5-(Isopropyl(methyl)amino)-2-((S)-2-oxo-3-((6-(trifluoromethyl)quinazolin-4-yl)amino)pyrrolidin-1-yl)cyclohexyl)-6-((1-((2S,3S)-1-methyl-5-oxo-2-(pyridin-3-yl)pyrrolidin-3-yl)-1-oxo-5,8,11, 14-tetraoxa-2-azahexadecan-16-yl)amino) nicotinamide]
EC50: 1.58 nM

CC(C)N(C)[C@@H]1CC[C@H](N2CC[C@H](Nc3ncnc4ccc(C(F)(F)F)cc34)C2=O)[C@H](NC(=O)c2cnn(C3CCN(CCOCCOCCOCCNC(=O)[C@H]4CC(=O)N(C)[C@@H]4c4cccnc4)CC3)c2)C1 [Example 129, N-((1R,2S,5R)-5-(Isopropyl(methyl)amino)-2-((S)-2-oxo-3-((6-(trifluoromethyl)quinazolin-4-yl)amino)pyrrolidin-1-yl)cyclohexyl)-1-(1-(1-((2S,3S)-1-methyl-5-oxo-2-(pyridin-3-yl)pyrrolidin-3-yl)-1-oxo-5,8,11-trioxa-2-azatridecan-13-yl)piperidin-4-yl)-1H-pyrazole-4-carboxamide]
EC50: 1.26 nM

CC(C)N(C)[C@@H]1CC[C@H](N2CC[C@H](Nc3ncnc4ccc(C(F)(F)F)cc34)C2=O)[C@H](NC(=O)C2CCC(N3CC(C(=O)NCCOCCOCCNC(=O)[C@H]4CC(=O)N(C)[C@@H]4c4cccnc4)C3)CC2)C1 (stereo partly drawn) [Example 131, (2S,3S)-N-(2-(2-(2-(1-(4-(((1R,2S,5R)-5-(Isopropyl(methyl)amino)-2-((S)-2-oxo-3-((6-(trifluoromethyl)quinazolin-4-yl)amino)pyrrolidin-1-yl)cyclohexyl)carbamoyl)cyclohexyl)azetidine-3-carboxamido)ethoxy)ethoxy)ethyl)-1-methyl-5-oxo-2-(pyridin-3-yl)pyrrolidine-3-carboxamide]
EC50: 0.501 nM

CC(C)N(C)[C@@H]1CC[C@H](N2CC[C@H](Nc3ncnc4ccc(C(F)(F)F)cc34)C2=O)[C@H](NC(=O)[C@H]2CC[C@@H](N3CCC(C(=O)NCCOCCOCCNC(=O)[C@H]4CC(=O)N(C)[C@@H]4c4cccnc4)C(F)(F)C3)CC2)C1 (stereo partly drawn) [Example 132, 3,3-Difluoro-1-((1S,4s)-4-(((1R,2S,5R)-5-(isopropyl(methyl)amino)-2-((S)-2-oxo-3-((6-(trifluoromethyl)quinazolin-4-yl)amino)pyrrolidin-1-yl)cyclohexyl)carbamoyl)cyclohexyl)-N-(2-(2-(2-((2S,3S)-1-methyl-5-oxo-2-(pyridin-3-yl)pyrrolidine-3-carboxamido)ethoxy)ethoxy)ethyl)piperidine-4-carboxamide]
EC50: 0.631 nM

CC(C)N(C)[C@@H]1CC[C@H](N2CC[C@H](Nc3ncnc4ccc(C(F)(F)F)cc34)C2=O)[C@H](NC(=O)c2ccc([C@H]3CC[C@@H](C(=O)NCCOCCOCCNC(=O)[C@H]4CC(=O)N(C)[C@@H]4c4cccnc4)CC3)cc2)C1 [Example 133, (2S,3S)-N-(2-(2-(2-((1S,4s)-4-(4-(((1R,2S,5R)-5-(Isopropyl(methyl)amino)-2-((S)-2-oxo-3-((6-(trifluoromethyl)quinazolin-4-yl)amino)pyrrolidin-1-yl)cyclohexyl)carbamoyl)phenyl)cyclohexane-1-carboxamido)ethoxy)ethoxy)ethyl)-1-methyl-5-oxo-2-(pyridin-3-yl)pyrrolidine-3-carboxamide]
EC50: 1.26 nM

CC(C)N(C)[C@@H]1CC[C@H](N2CC[C@H](Nc3ncnc4ccc(C(F)(F)F)cc34)C2=O)[C@H](NC(=O)[C@H]2CC[C@@H](N3CCC(C(=O)NCCOCCOCCNC(=O)[C@H]4CC(=O)N(C)[C@@H]4c4cccnc4)CC3)CC2)C1 [Example 134, 1-((1S,4s)-4-(((1R,2S,5R)-5-(Isopropyl(methyl)amino)-2-((S)-2-oxo-3-((6-(trifluoromethyl)quinazolin-4-yl)amino)pyrrolidin-1-yl)cyclohexyl)carbamoyl)cyclohexyl)-N-(2-(2-(2-((2S,3S)-1-methyl-5-oxo-2-(pyridin-3-yl)pyrrolidine-3-carboxamido)ethoxy)ethoxy)ethyl)piperidine-4-carboxamide, 3Formic acid salt]
EC50: 0.126 nM
